Data reported in US20120225123A1, “Use of Synergistic Combinations of an Avermectin and an Antineoplastic Compounds for the Treatment of Hematological Malignancies” (UNIVERSITY HEALTH NETWORK, priority 2009, published 2012).

Tests used:
[1] = cited from earlier work
primary AML samples = experiment: Clonogenic (methylcellulose colony forming) assay, primary AML; format: cell-based, human; settings: ivermectin 6 μM; in 3/6 primary AML samples
Description: To assess clonogenic growth, primary AML cells or granulocyte colony-stimulating factor (G-CSF) mobilized PBSCs (4×10^5/mL) were treated with IVM or buffer control for 24 hours. After treatment, cells were washed and 10^5 cell/mL were plated in duplicate in MethoCult GF H4434 medium (StemCell Technologies, Vancouver, BC) containing 1% methycellulose in IMDM, 30% FCS, 1% bovine serum albumin, 3 U/mL of recombinant human erythropoietin, 10^−4 M of 2-mercaptoethanol, 2 mM of L-glutamine, 50 ng/mL of recombinant human stem cell factor, 10 ng/mL of GM-CSF, and 10 ng/mL of rh IL-3. Alternatively, primary cells were plated directly into MethoCult GF H4434 medium with ivermectin. Seven days (AML samples) or 14 days (normal PBCS) after plating, the number of colonies containing 10 or more cells for AML or over 100 cells for normal samples was counted as previously described.^14
Ivermectin was also evaluated in clonogenic assays in primary normal hematopoietic and AML cells. Ivermectin (6 μM) had minimal effects on the clonogenic growth of normal hematopoetic cells (n=3) with <15% reduction in clonogenic growth. In contrast, ivermectin reduced clonogenic growth by ≧40% in 3/6 primary AML samples (FIG. 1D). Similar effects were noted when primary cells were directly plated into clonogenic assays with ivermectin (FIG. 1G).

[2] = test system: OCI-AML2, HL60, and KG1a leukemia cell lines; experiment: Chemical screen for cytotoxic compounds, MTS assay; format: cell-based, human; settings: 72 hours, all cell lines in the screen, read-out: EC50, reduced cell viability
Description: HL60, KG1a, and OCI-AML2 leukemia cells were seeded into 96-well polystyrene tissue culture plates (Nunc). After seeding, cells were treated with aliquots of the chemical library (=100) at increasing concentrations (3 to 50 μM) with a final DMSO concentration of 0.5%. Seventy two hours after incubation, cell growth and viability was measured by the MTS assay. Liquid handling was performed by a Biomek FX Laboratory Automated Workstation (Beckman Coulter Fullerton, Calif.).
(§1) Cell growth and viability was assessed by the MTS assay (Promega, Madison, Wis.) according to the manufacturer's instructions and as previously described.^12 Cell death was measured by Annexin V-fluoroscein isothiocyanate (FITC) and Propidium Iodide (PI; Biovision Research Products, Mountain View, Calif.) staining and flow cytometry according to the manufacturer's instructions and as previously described.^13 To identify CD34+ cells, a normal PBSC sample was co-stained with PE-anti-CD34+ (Beckman Coulter, Marseille France), and APC-anti-CD45 (Becton Dickenson, San Jose Calif.).
A small chemical library (n=100) focused on anti-microbials and metabolic regulators with wide therapeutic windows and well understood pharmacokinetics was compiled. […] Seventy two hours after incubation, cell growth and viability was measured by the MTS assay. […]

OCI-AML2 cells = experiment: Cell death, viability and cell cycle in OCI-AML2 cells; format: cell-based, human
Description: as §1
Cell cycle analysis was performed as described previously.^15 Briefly, cells were harvested, washed with cold PBS, and resuspended in 80% cold ethanol. Cells were then treated with 100 ng/mL DNase-free RNase A (Invitrogen) at 37° C. for 30 min, washed with cold PBS, and resuspended in PBS with 50 μg/mL propidium iodide. DNA content was analyzed by flow cytometry (FACSCalibur; Becton Dickinson). The percentage of cells in each phase of the cell cycle was calculated with FlowJo version 8.8 (TreeStar, Ashland, Oreg.).

[3] = test system: primary normal hematopoietic cells (PBSC); experiment: Cell viability by Annexin V and PI staining, normal hematopoietic cells; format: cell-based, human; settings: 48 hours, concentrations up to 20 μM
Description: Primary human acute myeloid leukemia (AML) samples were isolated from fresh bone marrow and peripheral blood samples of consenting patients. Similarly, primary normal hematopoietic cells were obtained from healthy consenting volunteers donating peripheral blood mononuclear cells
(PBSCs) for stem cell transplantation. The mononuclear cells were isolated from the samples by Ficoll density centrifugation. Primary cells were cultured at 37° C. in IMDM supplemented with 20% FCS and appropriate antibiotics.
as §1
Given the cytotoxicity of IVM toward leukemia cell lines, its cytotoxicity was compared to primary normal hematopoietic cells and acute myeloid leukemia (AML) patient samples (n=4 intermediate risk cytogenetics, n=1 good risk cytogenetics, and n=1 unknown cytogenetics). […]

[4] = test system: STAT1 expression in DU145 and PPC-1 cells; experiment: Gene expression by Q-RT-PCR, DU145 and PPC-1; format: cell-based, human
Description: Gene expression changes were evaluated in OCI AML2, 0937, HL60, DU145 and PPC-1 cells by real-time Q-RT-PCRas described previously^15, 47. The expression level of STAT1A, STAT1B, TRIM22, OAS1 and IFIT3 before and after incubation of leukemia cells with ivermectin was evaluated.

[5] = healthy male volunteers, 14 mg capsule of radiolabelled ivermectin
[6] = onchocerciasis patients, single oral dose of 150 μg/kg

ivermectin
time over which IVM and/or metabolites are excreted in the feces ([1]; estimated): ~12 days | half-life [1, 5]: 11.8 h | mean Tmax [1, 5]: 6 h | administered dose excreted in the urine ([1]; in vivo): < 1% | area under the curve over 48 hours [1, 6]: 2852 ng·h/mL | maximum plasma concentration [1, 6]: 52.0 ng/mL | time to maximum plasma concentration [1, 6]: 5.2 h | reduction in clonogenic growth (primary AML samples): ≥ 40% | EC50 [2]: < 10 µM | cell death (OCI-AML2 cells; 24 hours of treatment): induced cell death | cell cycle (OCI-AML2 cells; times and concentrations that preceded cell death, PI DNA content): induced G2 cell cycle arrest | induction of cell death [3]: did not induce cell death | STAT1 expression [4]: did not show changes in STAT1 expression
